From patent publication US20240174624A1, “CHIRAL N-(1,3,4-OXADIAZOLE-2-YL)PHENYL CARBOXYLIC ACID AMIDES AND THEIR USE AS HERBICIDES” (Bayer Aktiengesellschaft, priority 2021, published 2024)

Tests used:
ECHCG [1] = assay: Post-emergence herbicidal action; type: in vivo, Echinochloa crus-galli; details: 20 g/ha, assessed after about 3 weeks
Experimental: (§1) Seeds of monocotyledonous and dicotyledonous weed and crop plants are laid out in sandy loam soil in wood-fibre pots, covered with soil and cultivated in a greenhouse under good growth conditions. 2 to 3 weeks after sowing, the test plants are treated at the one-leaf stage. The compounds of the invention, formulated in the form of wettable powders (WP) or as emulsion concentrates (EC), are then sprayed onto the green parts of the plants in the form of an aqueous suspension or emulsion at a water application rate equating to 600 to 800 l/ha, with addition of 0.2% wetting agent. After the test plants have been left to stand in the greenhouse under optimal growth conditions for about 3 weeks, the action of the preparations is assessed visually in comparison to untreated controls (herbicidal action in percent (%): 100% activity=the plants have died, 0% activity=like control plants). […] The tables below illustrate, in an illustrative manner, the post-emergence herbicidal action of the compounds of the invention, the herbicidal activity being stated in percent. In the experiments that follow, the herbicidal action of the compounds of the invention and that of the corresponding known racemic compounds closest from WO2012126932 and WO2018202535 were compared under the above-specified conditions by the pre-emergence and post-emergence method. The example numbers given in the tables relate to the compounds disclosed in the respective documents.

AMARE [2] = assay: Post-emergence herbicidal action; type: in vivo, Amaranthus retroflexus; details: assessed after about 3 weeks
Experimental: as §1, with “percent.” for “percent. In the experiments that follow, the herbicidal action of the compounds of the invention and that of the corresponding known racemic compounds closest from WO2012126932 and WO2018202535 were compared under the above-specified conditions by the pre-emergence and post-emergence method. The example numbers given in the tables relate to the compounds disclosed in the respective documents.”

SETVI [3] = assay: Pre-emergence herbicidal action; type: in vivo, Setaria viridis; details: for Pre-emergence action against SETVI: scored after 3 weeks
Excerpt: (§2) Seeds of monocotyledonous and dicotyledonous weed plants and crop plants are laid out in sandy loam soil in wood-fibre pots and covered with soil. The compounds of the invention, formulated in the form of wettable powders (WP) or as emulsion concentrates (EC), are then applied to the surface of the covering soil in the form of an aqueous suspension or emulsion at a water application rate equivalent to 600 to 800 l/ha, with addition of 0.2% wetting agent. After the treatment, the pots are placed in a greenhouse and kept under good growth conditions for the trial plants. The damage to the test plants is scored visually after a test period of 3 weeks by comparison with untreated controls (herbicidal activity in percent (%): 100% activity=the plants have died, 0% activity=like control plants). […] The tables below illustrate, in an illustrative manner, the post-emergence herbicidal action of the compounds of the invention, the herbicidal activity being stated in percent. In the experiments that follow, the herbicidal action of the compounds of the invention and that of the corresponding known racemic compounds closest from WO2012126932 and WO2018202535 were compared under the above-specified conditions by the pre-emergence and post-emergence method. The example numbers given in the tables relate to the compounds disclosed in the respective documents.

MATIN [4] = assay: Pre-emergence herbicidal action; type: in vivo, Matricaria inodora; details: for Pre-emergence action against MATIN: scored after 3 weeks
Excerpt: as §2

LOLRI [5] = assay: Post-emergence herbicidal action; type: in vivo, Lolium rigidum; details: 20 g a.i./ha, comparative experiment
Experimental: as §1, with “The example numbers given in the tables relate to the compounds disclosed in the respective documents.” left out

ALOMY = assay: Pre-emergence herbicidal action; type: in vivo, Alopecurus myosuroides; details: for Herbicidal action against ALOMY: 20 g a.i./ha, comparative experiment; for Pre-emergence action against ALOMY: scored after 3 weeks
Excerpt: as §2

ZEAMX [6] = assay: Post-emergence damage to crop plants; type: in vivo, Zea mays; details: 20 g a.i./ha, comparative experiment
Experimental: as §1

GLXMA = assay: Pre-emergence damage to crop plants; type: in vivo, Glycine max; details: comparative experiment
Excerpt: as §2

VERPE [7] = assay: Post-emergence herbicidal action; type: in vivo, Veronica persica; details: 5 g a.i./ha, comparative experiment
Experimental: as §1

MATIN [8] = assay: Post-emergence herbicidal action; type: in vivo, Matricaria inodora; details: 20 g/ha, assessed after about 3 weeks
Experimental: as §1, with “percent.” for “percent. In the experiments that follow, the herbicidal action of the compounds of the invention and that of the corresponding known racemic compounds closest from WO2012126932 and WO2018202535 were compared under the above-specified conditions by the pre-emergence and post-emergence method. The example numbers given in the tables relate to the compounds disclosed in the respective documents.”

VIOTR = assay: Pre-emergence herbicidal action; type: in vivo, Viola tricolor; details: scored after 3 weeks
Excerpt: as §2, with “percent.” for “percent. In the experiments that follow, the herbicidal action of the compounds of the invention and that of the corresponding known racemic compounds closest from WO2012126932 and WO2018202535 were compared under the above-specified conditions by the pre-emergence and post-emergence method. The example numbers given in the tables relate to the compounds disclosed in the respective documents.”

ECHCG [9] = assay: Pre-emergence herbicidal action; type: in vivo, Echinochloa crus-galli; details: 80 g/ha, scored after 3 weeks
Excerpt: as §2, with “percent.” for “percent. In the experiments that follow, the herbicidal action of the compounds of the invention and that of the corresponding known racemic compounds closest from WO2012126932 and WO2018202535 were compared under the above-specified conditions by the pre-emergence and post-emergence method. The example numbers given in the tables relate to the compounds disclosed in the respective documents.”

BRSNW = assay: Post-emergence damage to crop plants; type: in vivo, Brassica napus; details: 20 g a.i./ha, comparative experiment
Experimental: as §1, with “The example numbers given in the tables relate to the compounds disclosed in the respective documents.” left out

DIGSA [10] = assay: Post-emergence herbicidal action; type: in vivo, Digitaria sanguinalis; details: for Post-emergence action against DIGSA: assessed after about 3 weeks
Experimental: as §1

ZEAMX [11] = assay: Pre-emergence damage to crop plants; type: in vivo, Zea mays; details: comparative experiment
Excerpt: as §2

SETVI [12] = assay: Post-emergence herbicidal action; type: in vivo, Setaria viridis; details: for Post-emergence action against SETVI: assessed after about 3 weeks
Experimental: as §1

DIGSA [13] = assay: Pre-emergence herbicidal action; type: in vivo, Digitaria sanguinalis; details: scored after 3 weeks
Excerpt: as §2, with “percent.” for “percent. In the experiments that follow, the herbicidal action of the compounds of the invention and that of the corresponding known racemic compounds closest from WO2012126932 and WO2018202535 were compared under the above-specified conditions by the pre-emergence and post-emergence method. The example numbers given in the tables relate to the compounds disclosed in the respective documents.”

LOLRI [14] = assay: Pre-emergence herbicidal action; type: in vivo, Lolium rigidum
Excerpt: as §2

VERPE [15] = assay: Pre-emergence herbicidal action; type: in vivo, Veronica persica; details: for Herbicidal action against VERPE: comparative experiment
Excerpt: as §2

AVEFA = assay: Pre-emergence herbicidal action; type: in vivo, Avena fatua; details: for Herbicidal action against AVEFA: 20 g a.i./ha, comparative experiment
Excerpt: as §2

POLCO = assay: Pre-emergence herbicidal action; type: in vivo, Polygonum convolvulus
Excerpt: as §2

AMARE [16] = assay: Pre-emergence herbicidal action; type: in vivo, Amaranthus retroflexus; details: scored after 3 weeks
Excerpt: as §2, with “percent.” for “percent. In the experiments that follow, the herbicidal action of the compounds of the invention and that of the corresponding known racemic compounds closest from WO2012126932 and WO2018202535 were compared under the above-specified conditions by the pre-emergence and post-emergence method. The example numbers given in the tables relate to the compounds disclosed in the respective documents.”

TRZAS = assay: Post-emergence damage to crop plants; type: in vivo, Triticum aestiva; details: 20 g a.i./ha, comparative experiment
Experimental: as §1

CYPES [17] = assay: Pre-emergence herbicidal action; type: in vivo, Cyperus esculentus; details: 20 g a.i./ha, comparative experiment
Excerpt: as §2

STEME [18] = assay: Post-emergence herbicidal action; type: in vivo, Stellaria media; details: 5 g a.i./ha, comparative experiment
Experimental: as §1

STEME [19] = assay: Pre-emergence herbicidal action; type: in vivo, Stellaria media; details: comparative experiment
Excerpt: as §2

CYPES [20] = assay: Post-emergence herbicidal action; type: in vivo, Cyperus esculentus; details: 20 g a.i./ha, comparative experiment
Experimental: as §1, with “The example numbers given in the tables relate to the compounds disclosed in the respective documents.” left out

[21] = 20 g a.i./ha, comparative experiment

For `Cc1nnc(NC(=O)c2ccc(C(F)(F)F)c([S+]([O-])C3CC3)c2Cl)o1` (stereo in doubt) [Example I-4, 2-chloro-N-(5-methyl-1,3,4-oxadiazol-2-yl)-3-[(S)-cyclopropylsulfinyl]-4-(trifluoromethyl)benzamide], the “Post-emergence action against ECHCG” value (ECHCG [1]) was 90%, the “Post-emergence action against AMARE” value (AMARE [2]; 5 g/ha) was 100% and the “Post-emergence action against AMARE” value (AMARE [2]; 20 g/ha) was 100%. The “Pre-emergence action against SETVI” value (SETVI [3]; 20 g/ha) was 100%, the “Pre-emergence action against SETVI” value (SETVI [3]; 80 g/ha) was 100% and the “Pre-emergence action against MATIN” value (MATIN [4]; 20 g/ha) was 80%. The “Pre-emergence action against MATIN” value (MATIN [4]; 80 g/ha) was 100%, the “Herbicidal action against LOLRI” value (LOLRI [5]) was 60% and the “Herbicidal action against ALOMY” value (ALOMY) was 80%. For the same compound, the “Pre-emergence action against ALOMY” value (ALOMY; 20 g/ha) was 80%, the “Pre-emergence action against ALOMY” value (ALOMY; 80 g/ha) was 100% and the “Damage to ZEAMX” value (ZEAMX [6]) was 0%. For the same compound, the “Damage to GLXMA” value (GLXMA; 20 g a.i./ha) was 40%, the “Damage to GLXMA” value (GLXMA; 80 g a.i./ha) was 80% and the “Herbicidal action against VERPE” value (VERPE [7]) was 60%. For the same compound, the “Post-emergence action against MATIN” value (MATIN [8]) was 80%, the “Pre-emergence action against VIOTR” value (VIOTR; 20 g/ha) was 100% and the “Pre-emergence action against VIOTR” value (VIOTR; 80 g/ha) was 100%. The “Pre-emergence action against ECHCG” value (ECHCG [9]) was 100%, the “Damage to BRSNW” value (BRSNW) was 80% and the “Post-emergence action against DIGSA” value (DIGSA [10]; 5 g/ha) was 90%. The “Herbicidal action against DIGSA” value (DIGSA [10]; [21]) was 100%, the “Post-emergence action against DIGSA” value (DIGSA [10]; 20 g/ha) was 100% and the “Damage to ZEAMX” value (ZEAMX [11]; 80 g a.i./ha) was 50%. For the same compound, the “Post-emergence action against SETVI” value (SETVI [12]; 5 g/ha) was 100%, the “Post-emergence action against SETVI” value (SETVI [12]; 20 g/ha) was 100% and the “Pre-emergence action against DIGSA” value (DIGSA [13]; 20 g/ha) was 100%. The “Pre-emergence action against DIGSA” value (DIGSA [13]; 80 g/ha) was 100%, the “Herbicidal action against LOLRI” value (LOLRI [14]; [21]) was 50% and the “Pre-emergence action against LOLRI” value (LOLRI [14]; 80 g/ha, scored after 3 weeks) was 80%. For the same compound, the “Pre-emergence action against VERPE” value (VERPE [15]; 80 g/ha, scored after 3 weeks) was 100%, the “Herbicidal action against AVEFA” value (AVEFA) was 30% and the “Pre-emergence action against AVEFA” value (AVEFA; 80 g/ha, scored after 3 weeks) was 90%. For the same compound, the “Pre-emergence action against POLCO” value (POLCO; 80 g/ha, scored after 3 weeks) was 80%, the “Pre-emergence action against AMARE” value (AMARE [16]; 20 g/ha) was 100% and the “Pre-emergence action against AMARE” value (AMARE [16]; 80 g/ha) was 100%. The “Damage to TRZAS” value (TRZAS) was 20%.
With `Cc1nnc(NC(=O)c2ccc(C(F)(F)F)c([S+](C)[O-])c2Cl)o1` (racemic) [2-360, from WO2012126932, 2-chloro-N-(5-methyl-1,3,4-oxadiazol-2-yl)-3-[(rac)-methylsulfinyl]-4-(trifluoromethyl)benzamide, reference compound] the “Herbicidal action against SETVI” value (SETVI [3]; [21]) was 50%, the “Herbicidal action against MATIN” value (MATIN [4]; [21]) was 70% and the “Herbicidal action against CYPES” value (CYPES [17]) was 70%. The “Herbicidal action against ALOMY” value (ALOMY) was 30%, the “Damage to ZEAMX” value (ZEAMX [6]) was 20% and the “Herbicidal action against VERPE” value (VERPE [7]) was 20%. For the same compound, the “Herbicidal action against STEME” value (STEME [18]) was 0%, the “Herbicidal action against STEME” value (STEME [19]; 20 g a.i./ha) was 0% and the “Herbicidal action against STEME” value (STEME [19]; 80 g a.i./ha) was 70%. For the same compound, the “Herbicidal action against STEME” value (STEME [19]; 320 g a.i./ha) was 70%, the “Herbicidal action against ZEAMX” value (ZEAMX [11]; 320 g a.i./ha) was 60% and the “Herbicidal action against SETVI” value (SETVI [12]; 5 g a.i./ha, comparative experiment) was 80%. The “Herbicidal action against VERPE” value (VERPE [15]; 20 g a.i./ha) was 0%, the “Herbicidal action against VERPE” value (VERPE [15]; 80 g a.i./ha) was 10% and the “Herbicidal action against AVEFA” value (AVEFA) was 0%. For the same compound, the “Herbicidal action against POLCO” value (POLCO; 320 g a.i./ha, comparative experiment) was 20% and the “Herbicidal action against CYPES” value (CYPES [20]) was 50%.
